One experiment addresses Carbonic anhydrase 1 (Homo sapiens, UniProt P00915). Description: Inhibition of human carbonic anhydrase 1 incubated for 15 mins prior to testing by stopped-flow CO2 hydration assay.
The next experiment has as its target Carbonic anhydrase 2 (Homo sapiens, UniProt P00918). Description: Inhibition of human carbonic anhydrase 2 incubated for 15 mins prior to testing by stopped-flow CO2 hydration assay.
The next experiment concerns the target Carbonic anhydrase 9 (Homo sapiens, UniProt Q16790). Put plainly: Inhibition of human carbonic anhydrase 9 incubated for 15 mins prior to testing by stopped-flow CO2 hydration assay.
In a further experiment the target is Carbonic anhydrase 12 (Homo sapiens, UniProt O43570). Put plainly: Inhibition of human carbonic anhydrase 12 incubated for 15 mins prior to testing by stopped-flow CO2 hydration assay.
Chain of Carbonic anhydrase 12 (O43570 whole entry): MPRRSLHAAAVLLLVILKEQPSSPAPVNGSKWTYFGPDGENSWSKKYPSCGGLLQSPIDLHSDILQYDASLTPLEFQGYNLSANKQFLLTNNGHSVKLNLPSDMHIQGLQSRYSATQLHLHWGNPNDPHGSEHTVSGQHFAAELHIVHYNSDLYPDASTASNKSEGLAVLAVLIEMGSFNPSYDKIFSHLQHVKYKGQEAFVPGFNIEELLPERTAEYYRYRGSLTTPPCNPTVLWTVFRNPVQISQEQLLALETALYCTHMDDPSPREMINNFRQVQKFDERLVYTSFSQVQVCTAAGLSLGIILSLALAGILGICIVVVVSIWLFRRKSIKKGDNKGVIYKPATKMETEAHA

Chain of Carbonic anhydrase 1 (P00915 whole entry): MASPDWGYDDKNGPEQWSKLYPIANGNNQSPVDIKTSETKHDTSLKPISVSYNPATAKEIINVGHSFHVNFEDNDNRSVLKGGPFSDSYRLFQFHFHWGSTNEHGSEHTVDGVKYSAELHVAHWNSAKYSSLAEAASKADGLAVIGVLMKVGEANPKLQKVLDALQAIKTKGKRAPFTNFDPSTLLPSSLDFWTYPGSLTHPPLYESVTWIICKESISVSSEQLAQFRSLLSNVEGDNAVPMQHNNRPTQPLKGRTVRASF

For orientation: Ki means the dissociation constant of the complex between target and ligand, obtained from inhibition or displacement. With `CC(=O)Oc1ccc2oc(=O)ccc2c1`, the Ki on Carbonic anhydrase 1 was > 10000 nM; on Carbonic anhydrase 2 it was > 10000 nM; at Carbonic anhydrase 9, 23.1 nM.

On to `Cc1c(O)ccc2c(-c3cccc(Cl)c3)cc(=O)oc12`, for which the values for the Ki on Carbonic anhydrase 1, at Carbonic anhydrase 2 and at Carbonic anhydrase 9 were > 10000 nM, > 10000 nM and 36.6 nM, respectively.

Take `O=C(Oc1ccc2oc(=O)ccc2c1)c1ccccc1`: the Ki at Carbonic anhydrase 1 was > 10000 nM; on Carbonic anhydrase 2 it was > 10000 nM; on Carbonic anhydrase 9 it was 29.9 nM.

For the molecule `CC(=O)Oc1cc2ccc(=O)oc2cc1OC(C)=O`, the Ki on Carbonic anhydrase 1 is > 10000 nM; on Carbonic anhydrase 2, > 10000 nM; at Carbonic anhydrase 9, 116 nM.

On to `O=c1ccc2cc(O)ccc2o1` [6-HYDROXYCOUMARIN], for which the Ki is > 10000 nM on Carbonic anhydrase 1, > 10000 nM on Carbonic anhydrase 2, 30.5 nM at Carbonic anhydrase 9 and 33.9 nM at Carbonic anhydrase 12.

Consider `Cc1c(O)ccc2c(-c3ccc(Cl)cc3)cc(=O)oc12`, for which the figures for the Ki at Carbonic anhydrase 1, on Carbonic anhydrase 2 and at Carbonic anhydrase 9 were > 10000 nM, > 10000 nM and 35.3 nM, respectively.

With `O=c1cc(-c2ccc([N+](=O)[O-])cc2)c2ccc(O)cc2o1`, the Ki was > 10000 nM at Carbonic anhydrase 1, > 10000 nM at Carbonic anhydrase 2, 20.3 nM on Carbonic anhydrase 9 and 6.5 nM on Carbonic anhydrase 12.

For `O=C(Oc1ccc2ccc(=O)oc2c1)c1ccccc1`, the Ki at Carbonic anhydrase 1 is > 10000 nM; at Carbonic anhydrase 2, > 10000 nM; at Carbonic anhydrase 9, 51.4 nM; at Carbonic anhydrase 12, 814 nM.

As to `Cc1c(O)ccc2c(-c3ccc([N+](=O)[O-])cc3)cc(=O)oc12`, the Ki on Carbonic anhydrase 1 was > 10000 nM; on Carbonic anhydrase 2, > 10000 nM; at Carbonic anhydrase 9 it was 30.9 nM.

Take `O=c1ccc2cc(O)c(O)cc2o1` [ESCULETIN]: the Ki on Carbonic anhydrase 1 was > 10000 nM; on Carbonic anhydrase 2, > 10000 nM; at Carbonic anhydrase 9 it was 36.4 nM; on Carbonic anhydrase 12 it was 9.3 nM.

As for `Cc1c(O)ccc2c(-c3ccccc3F)cc(=O)oc12`, the Ki on Carbonic anhydrase 1 was > 10000 nM; on Carbonic anhydrase 2 it was > 10000 nM; at Carbonic anhydrase 9, 95.9 nM.

Regarding `O=c1cc(-c2ccc(Cl)cc2)c2ccc(O)cc2o1`, the Ki at Carbonic anhydrase 1 is > 10000 nM; on Carbonic anhydrase 2, > 10000 nM; at Carbonic anhydrase 9, 31.5 nM.

Regarding `O=c1cc(-c2ccccc2)c2ccc(O)cc2o1`, the Ki was > 10000 nM on Carbonic anhydrase 1, > 10000 nM on Carbonic anhydrase 2, 47.2 nM on Carbonic anhydrase 9 and 90.8 nM on Carbonic anhydrase 12.

As for `O=c1cc(-c2cccc(Cl)c2)c2ccc(O)cc2o1`, the Ki on Carbonic anhydrase 1 was > 10000 nM; on Carbonic anhydrase 2 it was > 10000 nM; at Carbonic anhydrase 9, 31 nM.

As for `O=c1cc(-c2ccccc2F)c2ccc(O)cc2o1`, the figures for the Ki on Carbonic anhydrase 1, on Carbonic anhydrase 2 and at Carbonic anhydrase 9 were > 10000 nM, > 10000 nM and 31.8 nM, respectively.

Turning to `O=c1cc(-c2ccccc2Cl)c2ccc(O)cc2o1`, the values for the Ki on Carbonic anhydrase 1, on Carbonic anhydrase 2 and on Carbonic anhydrase 9 were > 10000 nM, > 10000 nM and 30.8 nM, respectively.

As for `Cc1ccc(-c2cc(=O)oc3c(C)c(O)ccc23)cc1`, the Ki is > 10000 nM at Carbonic anhydrase 1, > 10000 nM on Carbonic anhydrase 2 and 38.2 nM at Carbonic anhydrase 9.

Consider `Cc1cccc(-c2cc(=O)oc3cc(O)ccc23)c1`, for which the Ki at Carbonic anhydrase 1 was > 10000 nM; at Carbonic anhydrase 2, > 10000 nM; on Carbonic anhydrase 9 it was 17 nM.

Turning to `Cc1c(O)ccc2c(-c3ccc(N)cc3)cc(=O)oc12`, the Ki on Carbonic anhydrase 1 and on Carbonic anhydrase 2 was > 10000 nM each time.

In the case of `CC(=O)Oc1ccc2ccc(=O)oc2c1` [7-ACETOXYCOUMARIN], the Ki on Carbonic anhydrase 1 was > 10000 nM; at Carbonic anhydrase 2, > 10000 nM; at Carbonic anhydrase 9 it was 40.2 nM; on Carbonic anhydrase 12, 573 nM.

Consider `O=C(Oc1cc2ccc(=O)oc2cc1OC(=O)c1ccccc1)c1ccccc1`, for which the Ki at Carbonic anhydrase 1 was > 10000 nM; at Carbonic anhydrase 2, > 10000 nM; at Carbonic anhydrase 9 it was 38.4 nM.

Turning to `Cc1c(O)ccc2c(-c3ccccc3Cl)cc(=O)oc12`, the Ki at Carbonic anhydrase 1 was > 10000 nM; at Carbonic anhydrase 2, > 10000 nM; at Carbonic anhydrase 9 it was 27.5 nM.

For `Cc1ccc(-c2cc(=O)oc3cc(O)ccc23)cc1`, the Ki on Carbonic anhydrase 1 was > 10000 nM; at Carbonic anhydrase 2, > 10000 nM; on Carbonic anhydrase 9, 35.8 nM.

For `Nc1ccc(-c2cc(=O)oc3cc(O)ccc23)cc1`, the Ki at Carbonic anhydrase 1 was > 10000 nM; on Carbonic anhydrase 2 it was > 10000 nM; on Carbonic anhydrase 9, 21.6 nM.

Consider `Cc1c(O)ccc2c(-c3ccccc3)cc(=O)oc12`, for which the Ki at Carbonic anhydrase 1 was > 10000 nM; on Carbonic anhydrase 2, > 10000 nM; on Carbonic anhydrase 9, 39.5 nM; at Carbonic anhydrase 12, 402 nM.

Regarding `Cc1cccc(-c2cc(=O)oc3c(C)c(O)ccc23)c1`, the Ki on Carbonic anhydrase 1 is > 10000 nM; on Carbonic anhydrase 2, > 10000 nM; on Carbonic anhydrase 9, 37.4 nM.

Values taken from ChEMBL document CHEMBL4138209, “Inhibitory effects and structural insights for a novel series of coumarin-based compounds that selectively target human CA IX and CA XII carbonic anhydrases” (Eur J Med Chem, 2018).
